Reference: ChEMBL document CHEMBL5543151, “Rational Design of a Novel Class of Human ClpP Agonists through a Ring-Opening Strategy with Enhanced Antileukemia Activity” (J Med Chem, 2024)

Columns and labels:
[1] = Acute toxicity in BALB/c mouse assessed as ALB2 biochemical parameter at 25 to 100 mg/kg, ip measured for 2 weeks; type: organism-based; details: in vivo, 336 h, dose 25-100 mg/kg
[2] = Acute toxicity in BALB/c mouse assessed as ALP2L biochemical parameter at 25 to 100 mg/kg, ip measured for 2 weeks; type: organism-based; details: in vivo, 336 h, dose 25-100 mg/kg
[3] = Acute toxicity in BALB/c mouse assessed as ALTL biochemical parameter at 25 to 100 mg/kg, ip measured for 2 weeks; type: organism-based; details: in vivo, 336 h, dose 25-100 mg/kg
[4] = Acute toxicity in BALB/c mouse assessed as ASTL biochemical parameter at 25 to 100 mg/kg, ip measured for 2 weeks; type: organism-based; details: in vivo, 336 h, dose 25-100 mg/kg
[5] = Acute toxicity in BALB/c mouse assessed as CREJ2 biochemical parameter at 25 to 100 mg/kg, ip measured for 2 weeks; type: organism-based; details: in vivo, 336 h, dose 25-100 mg/kg
[6] = Acute toxicity in BALB/c mouse assessed as LDHI2 biochemical parameter at 25 to 100 mg/kg, ip measured for 2 weeks; type: organism-based; details: in vivo, 336 h, dose 25-100 mg/kg
[7] = Acute toxicity in BALB/c mouse assessed as vTP2 biochemical parameter at 25 to 100 mg/kg, ip measured for 2 weeks; type: organism-based; details: in vivo, 336 h, dose 25-100 mg/kg
[8] = Acute toxicity in BALB/c mouse assessed as TRIGL biochemical parameter at 25 to 100 mg/kg, ip measured for 2 weeks; type: organism-based; details: in vivo, 336 h, dose 25-100 mg/kg
[9] = Acute toxicity in BALB/c mouse assessed as UA2 biochemical parameter at 25 to 100 mg/kg, ip measured for 2 weeks; type: organism-based; details: in vivo, 336 h, dose 25-100 mg/kg
[10] = Acute toxicity in BALB/c mouse assessed as UREAL biochemical parameter at 25 to 100 mg/kg, ip measured for 2 weeks; type: organism-based; details: in vivo, 336 h, dose 25-100 mg/kg
[11] = Acute toxicity in BALB/c mouse assessed as adverse effect at 25 to 100 mg/kg, ip measured for 2 weeks; type: organism-based; details: in vivo, 336 h, dose 25-100 mg/kg
[12] = Acute toxicity in BALB/c mouse assessed as pathological changes in heart at 25 to 100 mg/kg, ip measured for 2 weeks by hematoxylin and eosin staining based assay; type: organism-based; details: in vivo, 336 h, dose 25-100 mg/kg
[13] = Acute toxicity in BALB/c mouse assessed as pathological changes in liver at 25 to 100 mg/kg, ip measured for 2 weeks by hematoxylin and eosin staining based assay; type: organism-based; details: in vivo, 336 h, dose 25-100 mg/kg
[14] = Acute toxicity in BALB/c mouse assessed as pathological changes in spleen at 25 to 100 mg/kg, ip measured for 2 weeks by hematoxylin and eosin staining based assay; type: organism-based; details: in vivo, 336 h, dose 25-100 mg/kg
[15] = Acute toxicity in BALB/c mouse assessed as pathological changes in lung at 25 to 100 mg/kg, ip measured for 2 weeks by hematoxylin and eosin staining based assay; type: organism-based; details: in vivo, 336 h, dose 25-100 mg/kg
[16] = Acute toxicity in BALB/c mouse assessed as pathological changes in kidney at 25 to 100 mg/kg, ip measured for 2 weeks by hematoxylin and eosin staining based assay; type: organism-based; details: in vivo, 336 h, dose 25-100 mg/kg
MV4-11 [17] = experiment: In vivo anti-leukemia activity against human MV4-11 cells transplanted in BALB/c nude mouse assessed as reduction in tumor volume at 2.5 mg/kg, ip twice weekly treatment started 7 th day of cell inoculum till 18 th day; type: functional; set-up: scale not given: the % may be the effect or the level left; details: time 11 day
MV4-11 [18] = experiment: In vivo anti-leukemia activity against human MV4-11 cells transplanted in BALB/c nude mouse assessed as reduction in tumor weight at 2.5 mg/kg, ip twice weekly treatment started 7 th day of cell inoculum till 18 th day; type: functional; set-up: scale not given: the % may be the effect or the level left; details: time 11 day
MV4-11 [19] = experiment: In vivo anti-leukemia activity against human MV4-11 cells transplanted in BALB/c nude mouse assessed as reduction in tumor volume at 5 mg/kg, ip twice weekly treatment started 7 th day of cell inoculum till 18 th day; type: functional; set-up: scale not given: the % may be the effect or the level left; details: time 11 day
MV4-11 [20] = experiment: In vivo anti-leukemia activity against human MV4-11 cells transplanted in BALB/c nude mouse assessed as reduction in tumor weight at 5 mg/kg, ip twice weekly treatment started 7 th day of cell inoculum till 18 th day; type: functional; set-up: scale not given: the % may be the effect or the level left; details: time 11 day
MV4-11 [21] = experiment: In vivo anti-leukemia activity against human MV4-11 cells transplanted in BALB/c nude mouse assessed as reduction in tumor volume at 10 mg/kg, ip twice weekly treatment started 7 th day of cell inoculum till 18 th day; type: functional; set-up: scale not given: the % may be the effect or the level left; details: time 11 day
MV4-11 [22] = experiment: In vivo anti-leukemia activity against human MV4-11 cells transplanted in BALB/c nude mouse assessed as reduction in tumor weight at 10 mg/kg, ip twice weekly treatment started 7 th day of cell inoculum till 18 th day; type: functional; set-up: scale not given: the % may be the effect or the level left; details: time 11 day
[23] = Toxicity in BALB/c nude mouse transplanted with human MV4-11 cells assessed as change in body weight at 2.5 to 10 mg/kg, ip measured for 17 days; type: organism-based; details: in vivo, 408 h, dose 2.5-10 mg/kg, time 17 day
[24] = Toxicity in BALB/c nude mouse transplanted with human MV4-11 cells assessed as pathological damage in heart at 2.5 to 10 mg/kg, ip measured for 17 days by hematoxylin and eosin staining based assay; type: organism-based; details: in vivo, 408 h, dose 2.5-10 mg/kg, time 17 day
[25] = Toxicity in BALB/c nude mouse transplanted with human MV4-11 cells assessed as pathological damage in liver at 2.5 to 10 mg/kg, ip measured for 17 days by hematoxylin and eosin staining based assay; type: organism-based; details: in vivo, 408 h, dose 2.5-10 mg/kg, time 17 day
[26] = Toxicity in BALB/c nude mouse transplanted with human MV4-11 cells assessed as pathological damage in spleen at 2.5 to 10 mg/kg, ip measured for 17 days by hematoxylin and eosin staining based assay; type: organism-based; details: in vivo, 408 h, dose 2.5-10 mg/kg, time 17 day
[27] = Toxicity in BALB/c nude mouse transplanted with human MV4-11 cells assessed as pathological damage in lung at 2.5 to 10 mg/kg, ip measured for 17 days by hematoxylin and eosin staining based assay; type: organism-based; details: in vivo, 408 h, dose 2.5-10 mg/kg, time 17 day
[28] = Toxicity in BALB/c nude mouse transplanted with human MV4-11 cells assessed as pathological damage in kidney at 2.5 to 10 mg/kg, ip measured for 17 days by hematoxylin and eosin staining based assay; type: organism-based; details: in vivo, 408 h, dose 2.5-10 mg/kg, time 17 day
[29] = Cmax in Sprague-Dawley rat at 5 mg/kg, iv measured upto 12 hrs by LC-MS analysis; type: ADME, organism-based; details: in vivo
[30] = AUC(0 to 12hrs) in Sprague-Dawley rat at 5 mg/kg, iv measured upto 12 hrs by LC-MS analysis; type: ADME, organism-based; details: in vivo
[31] = Half life in Sprague-Dawley rat at 5 mg/kg, iv measured upto 12 hrs by LC-MS analysis; type: ADME, organism-based; details: in vivo
[32] = Clearance in Sprague-Dawley rat at 5 mg/kg, iv measured upto 12 hrs by LC-MS analysis; type: ADME, organism-based; details: in vivo
[33] = MRT (0 to 12hrs) in Sprague-Dawley rat at 5 mg/kg, iv measured upto 12 hrs by LC-MS analysis; type: ADME, organism-based; details: in vivo
[34] = Bioavailability in Sprague-Dawley rat at 5 mg/kg, iv measured upto 12 hrs by LC-MS analysis; type: ADME, organism-based; details: in vivo
[35] = Cmax in Sprague-Dawley rat at 15 mg/kg, po measured upto 12 hrs by LC-MS analysis; type: ADME, organism-based; details: in vivo
[36] = Tmax in Sprague-Dawley rat at 15 mg/kg, po measured upto 12 hrs by LC-MS analysis; type: ADME, organism-based; details: in vivo
[37] = AUC(0 to 12hrs) in Sprague-Dawley rat at 15 mg/kg, po measured upto 12 hrs by LC-MS analysis; type: ADME, organism-based; details: in vivo
[38] = Half life in Sprague-Dawley rat at 15 mg/kg, po measured upto 12 hrs by LC-MS analysis; type: ADME, organism-based; details: in vivo
[39] = MRT (0 to 12hrs) in Sprague-Dawley rat at 15 mg/kg, po measured upto 12 hrs by LC-MS analysis; type: ADME, organism-based; details: in vivo

Structure (SMILES): Cl.N#Cc1cccc(CN2CCc3[nH]c(NCc4ccc(F)cc4)nc(=O)c3C2)c1
- Activity [1]: Non-Toxic
- Activity [2]: Non-Toxic
- Activity [3]: Non-Toxic
- Activity [4]: Non-Toxic
- Activity [5]: Non-Toxic
- Activity [6]: Non-Toxic
- Activity [7]: Non-Toxic
- Activity [8]: Non-Toxic
- Activity [9]: Non-Toxic
- Activity [10]: Non-Toxic
- Activity [11]: Non-Toxic
- Activity [12]: Non-Toxic
- Activity [13]: Non-Toxic
- Activity [14]: Non-Toxic
- Activity [15]: Non-Toxic
- Activity [16]: Non-Toxic
- Activity (MV4-11 [17]): 20.52%
- Activity (MV4-11 [18]): 20.35%
- Activity (MV4-11 [19]): 75.3%
- Activity (MV4-11 [20]): 67%
- Activity (MV4-11 [21]): 88.29%
- Activity (MV4-11 [22]): 88.88%
- Activity [23]: Non-Toxic
- Activity [24]: Non-Toxic
- Activity [25]: Non-Toxic
- Activity [26]: Non-Toxic
- Activity [27]: Non-Toxic
- Activity [28]: Non-Toxic
- Cmax [29]: 869 ng/mL
- AUC(0-t) at 12 h [30]: 791 ng·h/mL
- half-life [31]: 294 min
- clearance [32]: 58.3 mL/min/kg
- MRT last at 12 h [33]: 2.8 h
- bioavailability [34]: 32.7%
- Cmax [35]: 332 ng/mL
- Tmax [36]: 1 h
- AUC(0-t) at 12 h [37]: 780 ng·h/mL
- half-life [38]: 234 min
- MRT last at 12 h [39]: 2.4 h
